# Legend:
# [1] = system: CRP; assay: Blood CRP in healthy mice, 4-day test; assay type: in vivo; settings: 65 mg/kg/day in chow, 4 days, N=8; pairwise one-sided t-test p-value=0.04
# Experimental: In this Example, CRP results from 3 separate preclinical tests are presented and analyzed. First 4-day CRP test was conducted with 8 healthy mice using individuals as their own controls. Second 7-day CRP test was conducted in discontinuous disease model. And third also 7-day CRP test was conducted in continuous disease model. CRP present in mouse serum samples were analyzed using mouse CRP ELISA kit (GWB-3B960E, Genway Biotech Inc.). All blood samples were collected at the same time of the day.
# For evaluating possible effect of the DGA Activation in health, a 4-day test with healthy mice in Charles River Labs, Kuopio test facilities were conducted. In this test (prior initiation of the MPTP -model) the DGA was mixed into chow at the concentration of 65 mg/kg/day.
# [2] = system: corticosterone, IL-6
# [3] = system: seasonal flu or similar infectious disease; assay type: in vivo, human
# [4] = system: rat primary optic nerve astrocytes; assay: Cell viability (MTT and LDH assays) of rat primary optic nerve astrocytes; assay type: cell-based
# Experimental: For proving the efficacy of DGA Activation in reducing ROS in infectious disorders an in vitro study using rat primary optic nerve astrocytes has been conducted. […] As an important part of the study the cell viability was estimated 6 hours after tBHP administration by two methods, i.e. LDH and MTT assays. Cell viability was measured using the in-house MTT assay (of Experimentica Ltd., Finland) and CytoTox96 non-radioactive cytotoxicity assay (G1780, Promega) in response to oxidative stress primary optic nerve astrocytes. The production of reactive oxygen species (ROS) was measured using CellROX Green (Invitrogen) and isolate RNA in RNALater solution (Ambion). Prior study preparations to find suitable tBHP concentration: The astrocytes where seeded at 5000 cells per well and allowed to grow for 48 hrs to mimic the study. On day 2 the medium was removed and the cells were exposed to a dose response range of tBHP in fresh medium for 6 hrs. The MTT and LDH assay were performed to assess cell survival using the Victor microplate reader. The raw data was given to patent applicant for assessment. […] After 24 hrs the compounds were removed, and readded with new medium for 1 hr, prior to the administration of 85 μM tBHP (FIG. 3c). […]
# [5] = system: fever; assay: Acute fever response in two humans under infection, Example 4; assay type: in vivo, human
# Experimental: FIG. 11: Numerical values of short term reduction in fever in disease after the DGA Activation (administration approximately 300 mg of D-glyceric acid mixed in water as calcium salt (=2× 200 mg of DGAcs). The results in this table are presented graphically in FIG. 5 and explained in Example 4. Additional Notes: 300 mg of D-glyceric acid is more precisely the same as 430 mg of calcium salt dehydrate formulation, because one calcium atom and 2 water molecules make up some 30% of the total molecular weight. *) Reduction in fever materialized but the symptoms of the disease e.g. pain remained. **) Rather stressful “absent day from work arrangements” by e-mail between 0 minutes and 15 minutes' measurements could possibly have kept fever up.
# In Example 4 acute 15 min, 30 min, etc. fever responses of the DGA Activation in two individual under viral and/or bacterial infection (subjects S1 and S4 from e.g. Examples 1b-1f) were measured. Results are presented in graphical format in FIG. 5 and in numeric format in FIG. 11. The measurements of body temperatures after the DGA Activation were made in physiological state where infections (diseases) continue but they have nevertheless more or less stabilized. In this kind of a situation the immune system is activated above healthy and/or subclinical level. The objective was to verify possible spillover effects from reduction in inflammation and in oxidative stress towards fever. At the same the target was to gain more info on the size of suitable administration. (Before initiating any human tests full proof of safety was received from 3 week in vivo experiments with rats. The doses used in these clinical tests are at maximum less than 5% of the safe doses with rats in the 3-week safety tests.)
# [6] = system: HO-1, GRHPR, PGC-1a and NRF1 pathway genes; assay: Gene expression in peripheral leukocytes after 4.5-day administration, Example 5b; assay type: in vivo, human
# Experimental: FIG. 13a: In this 4.5-day experiment samples of peripheral leukocytes were collected from standard blood sample of S1 and S9 in fasting condition (0 h), and 1 hour (1 h) after taking 75 grams of glucose (Glutole, Biofile Pharma, 330 ml) for glucose tolerance test. After the collection of the blood samples the leukocytes were immediately separated, and after separation immediately lysed by stop solution and stored in freezer in line with the instructions by the service provider.
# Gene expression was measured from those peripheral leukocyte (=white blood cells). Additionally, basal (=0-Control) gene expression of all genes was later measured for S1. This was done using a different gene expression method for genome wide sequencing.
# The doses used were 250 mg taken twice a day, in the morning and before going to bed. The last DGA dose was double in size (some 8 mg/kg), and it was taken in the same morning as the collection of blood samples. Relatively high dose and 2.5 hours to measurement was chosen to see clearer dose response in gene expression from peripheral leukocytes.
# In the FIG. 13a it is shown that UTPfsAEM gene expressions are activated markedly in peripheral leukocytes after 4.5 day DGA Activation compared to 0-control. The analysis of selected genes was conducted both in fasting conditions and 1 h after glucose intake (“fed” in FIG. 13a)) and in acute dosing, i.e. only 2.5 hours from last DGA dose.
compound,measurement,setting,value
"O=C(O)[C@H](O)CO [DGA, D-glyceric acid]",blood CRP vs own starting level,[1],overall decline in CRP was statistically significant
same,decline of blood corticosterone compared to 0-Control,"[2]; 9 mg/kg of body weight/day of DGAcs in feed, 3 weeks, N=30, p-value=0.021",~40%
same,fat formation,"[2]; 3-5 week feeding study, N=144",fat formation is not increased
same,average IL-6 levels compared to 0-control,"[2]; 21-28 days, not statistically significant, p-value=0.12",lower average IL-6 levels
same,late mortality,"[2]; earlier broiler chicken experiment without infection, 1-2% in other groups",no mortality in DGA groups
same,time to alleviation of all symptoms of two-week long infection,[3]; S1,24 h
same,time to visible alleviation,[3]; S1,12 to 24 h
same,body temperature (fever),"[3]; S1, Monday 0130 pm after 2 doses of 3×200 mg Sunday night and 2×200 mg Monday morning, 37.0 on Sunday",36.62 celcius
same,body temperature,"[3]; S1, Monday 0700 pm",36.61 celcius
same,time until prolonged mild disease state disappeared,"[3]; human, in vivo",2 days
same,cell viability after tBHP administration,"[4]; 85 μM tBHP, 6 hrs",clearly higher
same,cell viability compared to 0-controls,[4]; in health (0 μM tBHP) and in disease state (85 μM tBHP),increases in both
same,reducing fever due to infection,[5]; 2×200 mg oral dose mixed into water,very effective in reducing fever
same,immediate impact on fever,"[5]; S1, 1×200 mg, Monday 0908 pm",didn't seem to have any significant immediate impact on fever
same,return of fever,[5]; S1 and S4,returns almost to the starting level in 1 hour or at least in 1.5 hours
same,time to reduction of fever,"[5]; S1 and S4, 2×200 mg of DGAcs in water",15 to 30 min
same,decline of fever,[5]; statistically very significant,modest
same,GRHPR gene expression,"[6]; fasting and fed, after 4.5 days",upregulated very significantly
same,HO-1 gene expression,"[6]; fasting and fed, after 4.5 days, 2.5 hours from last dose",upregulated very significantly
same,genes related to PGC-1a and NRF1 pathways,"[6]; fasting, after 4.5 days vs 0-control",activated statistically very significantly
same,increase of HO-1 expression,[6]; peripheral leukocytes in vivo,more than 100%
